{"source": "ChEMBL document CHEMBL5046301", "about": "“pH-Responsive Antimicrobial Peptide with Selective Killing Activity for Bacterial Abscess Therapy” (J Med Chem, 2022)", "key": {"Pseudomonas aeruginosa [1]": {"test_system": "Pseudomonas aeruginosa", "assay": "Antipseudomonal activity against Pseudomonas aeruginosa ATCC 27853 infected in ICR cutaneous abscess mouse model assessed as reduction in lesion area at 5 mg/kg,ip administered twice a day measured after 72 hrs (reference value: […])", "assay_type": "functional"}, "Mus musculus [2]": {"test_system": "Mus musculus", "assay": "Antiinflammatory activity in ICR cutaneous abscess mouse model assessed as reduction in TNF-alpha expression in serum at 5 mg/kg,ip administered twice a day measured after 72 hrs by ELISA (reference value: 1.01 +/ 0.46 10^3 pg/ml)", "assay_type": "functional"}, "Pseudomonas aeruginosa [3]": {"test_system": "Pseudomonas aeruginosa", "assay": "Antibacterial activity against Pseudomonas aeruginosa ATCC 27853 assessed as inhibition of bacterial growth at pH 7.4 incubated for 24 hrs by NCCLS protocol based method", "assay_type": "functional"}, "Staphylococcus aureus [4]": {"test_system": "Staphylococcus aureus", "assay": "Antibacterial activity against Staphylococcus aureus ATCC 29213 assessed as inhibition of bacterial growth at pH 7.4 incubated for 24 hrs by NCCLS protocol based method", "assay_type": "functional"}, "Pseudomonas aeruginosa [5]": {"test_system": "Pseudomonas aeruginosa", "assay": "Antimicrobial activity against Pseudomonas aeruginosa ATCC 27853 assessed as reduction in bacterial growth at pH 6.5 in presence of NaCl", "assay_type": "functional"}, "Pseudomonas aeruginosa [6]": {"test_system": "Pseudomonas aeruginosa", "assay": "Antimicrobial activity against Pseudomonas aeruginosa ATCC 27853 assessed as reduction in bacterial growth at pH 6.5 in presence of FeCl3", "assay_type": "functional, organism-based"}, "Salmonella typhimurium": {"test_system": "Salmonella typhimurium", "assay": "Antibacterial activity against Salmonella enterica subsp. enterica serovar Typhimurium C77-31 assessed as inhibition of bacterial growth at pH 7.4 incubated for 24 hrs by NCCLS protocol based method", "assay_type": "functional"}, "Pseudomonas aeruginosa [7]": {"test_system": "Pseudomonas aeruginosa", "assay": "Antimicrobial activity against Pseudomonas aeruginosa ATCC 27853 infected in ICR cutaneous abscess mouse model assessed as complete epidermis structure at 5 mg/kg,ip administered twice a day measured after 3 days by hematoxylin and eosin staining based analysis", "assay_type": "functional, organism-based", "conditions": "time 3.0 day"}, "Pseudomonas aeruginosa [8]": {"test_system": "Pseudomonas aeruginosa", "assay": "Induction of morphological changes in Pseudomonas aeruginosa ATCC 27853 assessed as change in intracellular contents at 2 uM at pH 6.5 incubated for 1 hr by TEM analysis", "assay_type": "functional, organism-based"}, "Mus musculus [9]": {"test_system": "Mus musculus", "assay": "Antiinflammatory activity in ICR cutaneous abscess mouse model assessed as reduction in IL-1alpha expression in serum at 5 mg/kg,ip administered twice a day measured after 72 hrs by ELISA (reference value: 9.9 +/ 0.42 10^1pg/ml)", "assay_type": "functional"}, "Staphylococcus aureus [10]": {"test_system": "Staphylococcus aureus", "assay": "Antibacterial activity against Staphylococcus aureus ATCC 25923 assessed as inhibition of bacterial growth at pH 6.5 incubated for 24 hrs by NCCLS protocol based method", "assay_type": "functional"}, "Lipopolysaccharide (LPS) [11]": {"test_system": "Lipopolysaccharide (LPS)", "assay": "Displacement of BODIPY-TR-cadaverin from Pseudomonas aeruginosa ATCC 27316 Lipopolysaccharide at 1 to 64 uM at pH 6.5 incubated for 1 hr by fluorescence based analysis relative to control", "conditions": "dose 1-64 µM"}, "Pseudomonas aeruginosa [12]": {"test_system": "Pseudomonas aeruginosa", "assay": "Antimicrobial activity against Pseudomonas aeruginosa ATCC 27853 assessed as reduction in bacterial growth at pH 6.5 in presence of MgCl2", "assay_type": "functional"}, "Lipopolysaccharide (LPS) [13]": {"test_system": "Lipopolysaccharide (LPS)", "assay": "Displacement of BODIPY-TR-cadaverin from Pseudomonas aeruginosa ATCC 27316 Lipopolysaccharide at 1 to 64 uM at pH 7.4 incubated for 1 hr by fluorescence based analysis relative to control", "conditions": "dose 1-64 µM"}, "Pseudomonas aeruginosa [14]": {"test_system": "Pseudomonas aeruginosa", "assay": "Induction of morphological changes in Pseudomonas aeruginosa ATCC 27853 assessed as plasma membrane collapse at 2 uM at pH 6.5 incubated for 1 hr by TEM analysis", "assay_type": "functional, organism-based"}, "Cell membrane [15]": {"test_system": "Cell membrane", "assay": "Induction of outer membrane permeabilization in Pseudomonas aeruginosa ATCC 27853 assessed as increase in NPN uptake by NPN-dye based fluorescence analysis", "assay_type": "subcellular", "conditions": "dose 1-64 µM"}, "[16]": {"assay": "Cytotoxicity against mouse RAW264.7 cells assessed as inhibition of cell growth at pH 6.5 measured after 24 hrs by MTT assay", "assay_type": "toxicity, cell-based"}, "Pseudomonas aeruginosa [17]": {"test_system": "Pseudomonas aeruginosa", "assay": "Antimicrobial activity against Pseudomonas aeruginosa ATCC 27853 assessed as reduction in bacterial growth at pH 6.5 in presence of CaCl2", "assay_type": "functional, organism-based"}, "Escherichia coli": {"test_system": "Escherichia coli", "assay": "Antibacterial activity against Escherichia coli ATCC 25922 assessed as inhibition of bacterial growth at pH 6.5 incubated for 24 hrs by NCCLS protocol based method", "assay_type": "functional"}, "[18]": {"test_system": "Staphylococcus epidermidis", "assay": "Antibacterial activity against Staphylococcus epidermidis ATCC 12228 assessed as inhibition of bacterial growth at pH 6.5 incubated for 24 hrs by NCCLS protocol based method", "assay_type": "functional"}, "Staphylococcus aureus [19]": {"test_system": "Staphylococcus aureus", "assay": "Antibacterial activity against methicillin-resistant Staphylococcus aureus ATCC 43300 assessed as inhibition of bacterial growth at pH 6.5 incubated for 24 hrs by NCCLS protocol based method", "assay_type": "functional"}, "Pseudomonas aeruginosa [20]": {"test_system": "Pseudomonas aeruginosa", "assay": "Antimicrobial activity against Pseudomonas aeruginosa ATCC 27853 assessed as reduction in bacterial growth at pH 6.5 in presence of KCl", "assay_type": "functional, organism-based"}, "Pseudomonas aeruginosa [21]": {"test_system": "Pseudomonas aeruginosa", "assay": "Induction of morphological changes in Pseudomonas aeruginosa ATCC 27853 assessed as change in intracellular contents at 2 uM at pH 7.4 incubated for 1 hr by TEM analysis", "assay_type": "functional, organism-based"}, "Mus musculus [22]": {"test_system": "Mus musculus", "assay": "Antiinflammatory activity in ICR cutaneous abscess mouse model assessed as reduction in IL-2 expression in serum at 5 mg/kg,ip administered twice a day measured after 72 hrs by ELISA (reference value: 1.53 +/ 0.06 10^3pg/ml)", "assay_type": "functional"}, "Cell membrane [23]": {"test_system": "Cell membrane", "assay": "Induction of outer membrane permeabilization in Pseudomonas aeruginosa ATCC 27853 assessed as pH responsive ability by measuring fold increase in NPN uptake at 64 uM by NPN-dye based fluorescence analysis relative to control", "assay_type": "subcellular"}, "Cell membrane [24]": {"test_system": "Cell membrane", "assay": "Induction of cytoplasmic membrane depolarization in Pseudomonas aeruginosa ATCC 27853 assessed as increase in fluorescence intensity at acidic and alkaline pH by DiSC3-5 dye based fluorescence assay", "assay_type": "subcellular", "conditions": "TDE = time-dependent effect"}, "[25]": {"test_system": "Staphylococcus epidermidis", "assay": "Antibacterial activity against Staphylococcus epidermidis ATCC 12228 assessed as inhibition of bacterial growth at pH 7.4 incubated for 24 hrs by NCCLS protocol based method", "assay_type": "functional"}, "[26]": {"assay": "Hemolytic activity against human RBC assessed as hemoglobin release at pH 6.5 incubated for 1 hrs", "assay_type": "toxicity, cell-based", "conditions": "erythrocyte, pH 6.5, 1 h"}, "Pseudomonas aeruginosa [27]": {"test_system": "Pseudomonas aeruginosa", "assay": "Antimicrobial activity against Pseudomonas aeruginosa ATCC 27853 infected in ICR cutaneous abscess mouse model assessed as reduction in colony forming units at 5 mg/kg,ip administered twice a day measured after 72 hrs (reference value: 5.08 +/ 1.84 10^10 CFU/mL )", "assay_type": "functional"}, "[28]": {"assay": "Cytotoxicity against mouse RAW264.7 cells assessed as inhibition of cell growth at pH 7.4 measured after 24 hrs by MTT assay", "assay_type": "toxicity, cell-based"}, "Pseudomonas aeruginosa [29]": {"test_system": "Pseudomonas aeruginosa", "assay": "Induction of morphological changes in Pseudomonas aeruginosa ATCC 27853 assessed as disruption in cell membrane at 2 uM at pH 7.4 incubated for 1 hr by SEM analysis", "assay_type": "functional, organism-based"}, "Pseudomonas aeruginosa [30]": {"test_system": "Pseudomonas aeruginosa", "assay": "Antibacterial activity against Pseudomonas aeruginosa ATCC 27853 assessed as inhibition of bacterial growth at pH 6.5 incubated for 24 hrs by NCCLS protocol based method", "assay_type": "functional"}, "Staphylococcus aureus [31]": {"test_system": "Staphylococcus aureus", "assay": "Antibacterial activity against Staphylococcus aureus ATCC 29213 assessed as inhibition of bacterial growth at pH 6.5 incubated for 24 hrs by NCCLS protocol based method", "assay_type": "functional"}, "[32]": {"assay": "Toxicity in ICR cutaneous abscess mouse model assessed as reduction in epidermal cell apoptosis at 10 mg/kg,sc measured after 24 hrs by TUNEL assay", "assay_type": "organism-based", "conditions": "in vivo"}}, "note": "Active and inactive are the calls of the source. No cut-off for these calls is given here."}
{"substance": "H-FLEHLIPHVIHGLVHAIHH-NH2", "values": [{"measurement": "Activity", "setting": "Pseudomonas aeruginosa [1]", "value": "2.97 10^1/mm2"}, {"measurement": "Activity", "setting": "Mus musculus [2]", "value": "8.14 10^2pg/ml"}, {"measurement": "MIC", "setting": "Pseudomonas aeruginosa [3]", "value": "> 64", "unit": "µM"}, {"measurement": "MIC", "setting": "Staphylococcus aureus [4]", "value": "> 64", "unit": "µM"}, {"measurement": "MIC", "setting": "Pseudomonas aeruginosa [5]", "value": 2, "unit": "µM"}, {"measurement": "Activity", "setting": "Pseudomonas aeruginosa [6]", "value": "Active"}, {"measurement": "MIC", "setting": "Salmonella typhimurium", "value": "> 64", "unit": "µM"}, {"measurement": "Activity", "setting": "Pseudomonas aeruginosa [7]", "value": "Active"}, {"measurement": "Activity", "setting": "Pseudomonas aeruginosa [8]", "value": "Active"}, {"measurement": "Activity", "setting": "Mus musculus [9]", "value": "6.67 10^1pg/ml"}, {"measurement": "MIC", "setting": "Staphylococcus aureus [10]", "value": "> 64", "unit": "µM"}, {"measurement": "Activity", "setting": "Lipopolysaccharide (LPS) [11]", "value": 100, "unit": "%"}, {"measurement": "MIC", "setting": "Pseudomonas aeruginosa [12]", "value": 2, "unit": "µM"}, {"measurement": "Activity", "setting": "Lipopolysaccharide (LPS) [13]", "value": 22.9, "unit": "%"}, {"measurement": "Activity", "setting": "Pseudomonas aeruginosa [14]", "value": "Active"}, {"measurement": "Activity", "setting": "Cell membrane [15]", "value": "Dose-Dependent Effect"}, {"measurement": "IC50 at 24 h", "setting": "[16]", "value": "> 128", "unit": "µM"}, {"measurement": "Activity", "setting": "Pseudomonas aeruginosa [17]", "value": "Active"}, {"measurement": "MIC", "setting": "Escherichia coli", "value": 2, "unit": "µM"}, {"measurement": "MIC", "setting": "[18]", "value": "> 64", "unit": "µM"}, {"measurement": "MIC", "setting": "Staphylococcus aureus [19]", "value": 64, "unit": "µM"}, {"measurement": "Activity", "setting": "Pseudomonas aeruginosa [20]", "value": "inactive"}, {"measurement": "Activity", "setting": "Pseudomonas aeruginosa [21]", "value": "inactive"}, {"measurement": "Activity", "setting": "Mus musculus [22]", "value": "1.15 10^3pg/ml"}, {"measurement": "Activity", "setting": "Cell membrane [23]", "value": 65.9, "unit": "%"}, {"measurement": "Activity", "setting": "Cell membrane [24]", "value": "Tde"}, {"measurement": "MIC", "setting": "[25]", "value": "> 64", "unit": "µM"}, {"measurement": "MHC10", "setting": "[26]", "value": "> 128", "unit": "µM"}, {"measurement": "Activity", "setting": "Pseudomonas aeruginosa [27]", "value": "2.16 10^9CFU/ml"}, {"measurement": "IC50 at 24 h", "setting": "[28]", "value": "> 128", "unit": "µM"}, {"measurement": "Activity", "setting": "Pseudomonas aeruginosa [29]", "value": "inactive"}, {"measurement": "MIC", "setting": "Pseudomonas aeruginosa [30]", "value": 2, "unit": "µM"}, {"measurement": "MIC", "setting": "Staphylococcus aureus [31]", "value": "> 64", "unit": "µM"}, {"measurement": "Activity", "setting": "[32]", "value": "Non-Toxic"}]}
